Read-outs that look alike come from different tables or passages of the source.
Tests used:
HPRT KO T cells = assay: 6TG IC50, T cell viability; format: cell-based; conditions: FIG. 27
Description: (§1) Such inactivation confers 6TG resistance that contrasts with the sensitivity of WT T cells to this drug. IC50 can be approximately determined to 10 nM and >100 μM for WT and HPRT KO T cells respectively.

WT T cells [1] = assay: 6TG IC50, T cell viability; format: cell-based; conditions: FIG. 27
Description: as §1

dCK/TRAC KO CAR T cells = assay: Sensitivity of CAR T cells to clofarabine and fludarabine (cell viability); format: cell-based
Description: (§7) These graphs allows determination of IC50 for both drugs clofarabine and fludarabine;
(§8) T cells were grown with or without clofarabine between D3 and D8 (see workflow 2 in FIG. 9), then they were incubated for 2 days (from D15 to D17) in media with different concentrations of clofarabine. T cells viability was then assessed by FACS analysis using the count bright kit.
(§9) These cells were then used to determined their sensitivity for clofarabine and fludarabine as performed before.

[2] = tested on: CAR T cells negative control; assay: as above; format: cell-based
Description: as §7, §8, §9

[3] = tested on: double KO dCK/TCAR CAR T-cells; assay: Growth rate of double KO CAR T-cells in the presence of clofarabine; format: cell-based; conditions: 11 days, clofarabine 0.1 μM to 10 μM, FIG. 14
Description: This experiment was performed on double KO dCK/TCAR T CAR T-cells (FMC63 which is described in patent application having the filing number PCT/EP2014/059662.) by culturing these cells during 11 days in media having different clofarabine (from 0.1 μM to 10 μM).

[4] = clinically relevant dose for ALL treatment, reported by EMA; cited from earlier work
dCK KO Daudi cells = assay: Growth of Daudi cells in media with clofarabine; format: cell-based; conditions: up to 1 μM clofarabine, FIG. 19
Description: (§2) FIG. 19 represents the growth rate (expressed in ×10^6 cells) for a period of 7 days of KO dCK Daudi cells versus WT Daudi cells in the absence or presence of increasing amounts of clofarabine (0.1 to 1 μM);
(§3) Daudi cells were cultured in media having different concentrations of clofarabine (0; 0.1; 0.25; 0.5 and 1 μM) for several days and counted at each passage.

WT Daudi cells = assay: Growth of Daudi cells in media with clofarabine; format: cell-based; conditions: clofarabine 0.1 to 1 μM, FIG. 19
Description: as §2, §3

dCK KO T cells = assay: Clofarabine IC50, T cell viability by FACS; format: cell-based; conditions: 48 h, 2 days incubation with clofarabine 0 to 10 μM, FIG. 8, read-out: IC50 (amount of drug to decrease cell viability to 50%)
Description: (§4) FIG. 8 represents the percentage of cell viability of WT and dCK KO T cells (treated with 5 μg or 10 μg of mRNA encoding dCK2 TALE-nuclease pair) cultured for two days in the presence of increasing amount of clofarabine (10 nM to 10 μM). This graph allows to determine the Clofarabine IC50 toward both cell populations;
(§5) To further investigate the ability of T cells to resist to clofarabine, IC50 for this drug was determined on dCK KO and WT T cells. The cells were collected 3 days after transfection were incubated for 2 days in the presence of increasing concentration of clofarabine (0 to 10 μM). At the end of clofarabine incubation, viability of T cells was determined by FACS analysis2.
(§6) The results presented in FIG. 8 show clearly that the processing of dCK gene mediated by TALE-nucleases efficiently inactivates dCK activity in T cells. Such inactivation correlates to clofarabine resistance, contrasting with the sensitivity of WT T cells. The IC50 values (amount of drug to add in the media to decrease cell viability to 50%) correspond respectively to about 100 nM and 10 μM for WT and dCK KO T cells.

WT T cells [5] = assay: Clofarabine IC50, T cell viability by FACS; format: cell-based; conditions: 48 h, 2 days incubation with clofarabine 0 to 10 μM, FIG. 8, read-out: IC50 (amount of drug to decrease cell viability to 50%)
Description: as §4, §5, §6

Nc1nc2nc[nH]c2c(=S)[nH]1 [6TG, 6-thioguanine]
IC50 (HPRT KO T cells): > 100000 nM
IC50 (WT T cells [1]): ~10 nM

Nc1nc(F)nc2c1ncn2[C@@H]1O[C@H](CO)[C@@H](O)[C@@H]1O [fludarabine]
IC50 (dCK/TRAC KO CAR T cells; double KO CAR T cells, FIG. 17, read-out: IC50 fludarabine): 400000 nM
IC50 ([2]; T CAR control, FIG. 17, read-out: IC50 fludarabine): 10000 nM

Nc1nc(Cl)nc2c1ncn2[C@@H]1O[C@H](CO)[C@@H](O)[C@@H]1F [clofarabine]
cell expansion in presence of clofarabine [3]: correct up to the 1 μM
Cmax [4]: 1000 nM
growth of cells in presence of clofarabine (dCK KO Daudi cells): able to grow
growth of cells in presence of clofarabine (WT Daudi cells): clearly impaired
IC50 (dCK KO T cells): ~10000 nM
IC50 (WT T cells [5]): ~100 nM
IC50 (dCK/TRAC KO CAR T cells; dCK/TRAC KO CAR T cells (FMC63), FIG. 17, read-out: IC50 clofarabine): 500 nM
IC50 ([2]; CAR T cells negative control, FIG. 17, read-out: IC50 clofarabine): 0.1 nM

Source: patent US10813951B2, “Method of engineering chemotherapy drug resistant T-cells for immunotherapy” (CELLECTIS, priority 2013, dated 2020)
